Test results as given in ChEMBL document CHEMBL5728826, “Benzimidazole compounds and derivatives as EGFR inhibitors” (2021).
pIC50: −log10 of the molar value.

Target: Epidermal growth factor receptor (Homo sapiens, UniProt P00533)
Experiment: Biochemical EGFR Inhibition Assays ([…]): 5 μL of EGFR enzyme form in assay buffer (50 mM HEPES pH 7.3, 10 mM MgCl2, 1 mM EGTA, 0.01% Tween 20, 2 mM DTT) are dispensed into columns 1-23, than 5 μL of ATP and ULight-poly-GT substrate (PerkinElmer; TRF0100-M) mix in assay buffer is added to all wells (final assay concentration of the ULight-poly-GT substrate 200 nM). Each of the different …

Sequence of Epidermal growth factor receptor (P00533 whole entry): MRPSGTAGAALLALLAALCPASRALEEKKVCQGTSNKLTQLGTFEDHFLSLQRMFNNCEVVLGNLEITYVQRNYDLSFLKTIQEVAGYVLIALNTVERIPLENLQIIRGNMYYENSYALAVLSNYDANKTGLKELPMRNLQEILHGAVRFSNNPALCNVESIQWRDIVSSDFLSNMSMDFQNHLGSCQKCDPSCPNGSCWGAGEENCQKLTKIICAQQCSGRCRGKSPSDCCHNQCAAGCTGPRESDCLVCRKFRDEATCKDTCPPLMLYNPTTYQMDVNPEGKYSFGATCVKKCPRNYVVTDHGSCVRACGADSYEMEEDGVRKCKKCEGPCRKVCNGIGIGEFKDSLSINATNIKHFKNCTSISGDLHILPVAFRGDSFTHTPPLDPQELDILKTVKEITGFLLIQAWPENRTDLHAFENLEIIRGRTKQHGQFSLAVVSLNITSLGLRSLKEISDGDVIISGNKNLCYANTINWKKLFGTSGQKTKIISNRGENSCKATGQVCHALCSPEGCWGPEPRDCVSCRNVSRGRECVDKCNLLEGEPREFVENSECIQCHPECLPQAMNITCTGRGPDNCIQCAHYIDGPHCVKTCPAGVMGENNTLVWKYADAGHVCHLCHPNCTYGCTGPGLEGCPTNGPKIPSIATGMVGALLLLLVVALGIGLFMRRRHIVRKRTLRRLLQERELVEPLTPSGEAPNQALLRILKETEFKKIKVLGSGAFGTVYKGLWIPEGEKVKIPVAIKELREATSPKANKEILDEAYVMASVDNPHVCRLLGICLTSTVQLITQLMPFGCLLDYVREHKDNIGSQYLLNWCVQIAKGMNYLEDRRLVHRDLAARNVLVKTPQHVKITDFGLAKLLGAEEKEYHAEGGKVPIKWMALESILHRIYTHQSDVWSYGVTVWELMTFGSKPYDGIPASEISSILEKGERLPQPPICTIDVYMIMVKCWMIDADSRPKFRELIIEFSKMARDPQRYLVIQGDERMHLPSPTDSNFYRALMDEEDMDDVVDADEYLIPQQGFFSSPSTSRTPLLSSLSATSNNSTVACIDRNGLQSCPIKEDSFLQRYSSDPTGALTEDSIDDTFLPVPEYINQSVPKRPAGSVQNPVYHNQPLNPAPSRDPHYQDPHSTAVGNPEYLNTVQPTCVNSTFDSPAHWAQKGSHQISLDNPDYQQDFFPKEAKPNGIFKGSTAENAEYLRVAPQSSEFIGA

Row | SMILES | pIC50
1 | Cn1cc(-c2cc(C(=O)/N=c3\[nH]c4ccccc4n3CC(C)(C)O)ccn2)cn1 | < 4.00
2 | COc1ccncc1-c1cc(C(=O)/N=c2\[nH]c3cc(C4CCN(C(C)=O)CC4)ccc3n2CC(C)(C)O)ccn1 | 6.66
